Source: patent US20100286145A1, “ISOPHTHALAMIDE DERIVATIVES INHIBITING BETA-SECRETASE ACTIVITY” (CoMentis, Inc., priority 2007, published 2010)

These molecules were tested against memapsin 2 (Homo sapiens, UniProt P56817) (assay: Inhibition of memapsin 2 beta-secretase activity (fluorogenic substrate FS-2)). Details: memapsin 2, pH 4, 37° C., 20 minutes pre-incubation; read-out: M2Ki.
Type: biochemical
Description: Potency of compounds were determined by measurement of their inhibition of memapsin 2 activity toward a fluorescent substrate. Kinetic inhibition experiments were performed using the procedure as described in Ermolieff, et al. (Biochemistry 39:12450-12456 (2000), the teachings of which are incorporated hereby in their entirety). Briefly, assays were performed at pH 4, 37° C., by pre-incubation of memapsin 2 enzyme with compound for 20 minutes. Activity measurements were initiated by addition of a fluorogenic substrate FS-2 (Bachem Americas, Torrance, Calif.) MCA-SEVNLDAEFR-DNP (SEQ ID NO.: 2). The substrate was derived from 10 amino acids of the human amyloid precursor protein (APP), with the Swedish variant amino acids at the beta-secretase cleavage site. The terminal amino acid was modified from arginine to lysine to facilitate derivatization with a functional group for detection by autofluorescence. The amino acid sequence of the “core” peptide of the substrate is SEVNLDAEFK (SEQ ID NO.: 3). The amino terminus was derivatized with (7-methoxycoumarin-4-yl)acetyl (MCA), and the epsilon amine of the lysine side chain of the terminal residue (K in sequence SEVNLDAEFK (SEQ ID NO.: 3)) was derivatized with 2,4-dinitorphenyl (DNP).
Fluorescent signal increase over time was measured as a rate of hydrolysis of the peptide substrate. Inhibition of hydrolytic rate was expressed relative to uninhibited controls and fit to a model for tight-binding inhibitors (J. Bieth, in “Proteinase Inhibitors,” Bayer Symposium V, 463-469, 1974, which is herein incorporated by reference for all purposes in its entirety).

memapsin 2, sequence (P56817 46-501): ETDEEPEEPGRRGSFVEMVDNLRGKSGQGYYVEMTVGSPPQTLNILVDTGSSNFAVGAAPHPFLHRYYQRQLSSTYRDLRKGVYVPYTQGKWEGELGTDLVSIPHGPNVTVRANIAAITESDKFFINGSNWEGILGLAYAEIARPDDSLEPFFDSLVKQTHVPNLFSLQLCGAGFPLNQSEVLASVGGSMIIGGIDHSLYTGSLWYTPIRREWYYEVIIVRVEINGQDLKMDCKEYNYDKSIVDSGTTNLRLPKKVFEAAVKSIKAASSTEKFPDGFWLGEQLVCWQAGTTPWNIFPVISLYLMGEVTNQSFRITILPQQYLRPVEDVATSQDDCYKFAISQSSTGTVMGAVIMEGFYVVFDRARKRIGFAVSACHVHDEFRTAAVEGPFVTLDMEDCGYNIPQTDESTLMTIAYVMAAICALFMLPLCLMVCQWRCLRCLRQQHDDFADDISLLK

Row | Compound | Ki
1 | C=C(C)c1cc(O)cc(CNC[C@@H](O)[C@H](Cc2ccccc2)NC(=O)c2cccc(C(=O)N(C)Cc3nc(C)cs3)c2)c1 [Compound 159, N1-((2S,3R)-3-hydroxy-4-(3-hydroxy-5-(prop-1-en-2-yl)benzylamino)-1-phenylbutan-2-yl)-N3-methyl-N3-((4-methylthiazol-2-yl)methyl)isophthalamide] | < 300 nM
2 | Cc1csc(CN(C)C(=O)c2cccc(C(=O)N[C@@H](Cc3ccccc3)[C@H](O)CNCc3cccc(C(C)O)c3)c2)n1 (stereo partly drawn) [Compound 160, N1-((2S,3R)-3-hydroxy-4-(3-(1-hydroxyethyl)benzylamino)-1-phenylbutan-2-yl)-N3-methyl-N3-((4-methylthiazol-2-yl)methyl)isophthalamide] | < 300 nM
3 | COc1cccc(CNC[C@@H](O)[C@H](Cc2ccccc2)NC(=O)c2cc(C(=O)N(C)Cc3nc(C)cs3)cc(-c3ccncc3)c2)c1 [Compound 203, N1-((2S,3R)-3-hydroxy-4-(3-methoxybenzylamino)-1-phenylbutan-2-yl)-N3-methyl-N3-((4-methylthiazol-2-yl)methyl)-5-(pyridin-4-yl)isophthalamide] | < 300 nM

Same assay, conditions: memapsin 2, pH 4, 37° C., fluorogenic substrate FS-2; read-out: M2Ki

Row | Compound | Ki
4 | Cc1csc(CN(C)C(=O)c2cc(C(=O)N[C@@H](Cc3ccccc3)[C@H](O)CNCc3cccc(C(F)(F)F)c3)cc(-c3cnco3)c2)n1 [Compound 219, N1-((2S,3R)-3-hydroxy-1-phenyl-4-(3-(trifluoromethyl)benzylamino)butan-2-yl)-N3-methyl-N3-((4-methylthiazol-2-yl)methyl)-5-(oxazol-5-yl)isophthalamide] | < 300 nM
5 | Cc1csc(CN(C)C(=O)c2cccc(C(=O)N[C@@H](Cc3ccccc3)[C@H](O)CNCc3cc(-c4ccncc4)cc(C(F)(F)F)c3)c2)n1 [Compound 275, N1-((2S,3R)-3-hydroxy-1-phenyl-4-(3-(pyridin-4-yl)-5-(trifluoromethyl)benzylamino)butan-2-yl)-N3-methyl-N3-((4-methylthiazol-2-yl)methyl)isophthalamide] | < 300 nM
6 | CN(Cc1nc(CF)cs1)C(=O)c1cccc(C(=O)N[C@@H](Cc2ccccc2)[C@H](O)CNCc2cncc(C(C)(C)F)c2)c1 [Compound 281, N1-((4-(fluoromethyl)thiazol-2-yl)methyl)-N3-((2S,3R)-4-((5-(2-fluoropropan-2-yl)pyridin-3-yl)methylamino)-3-hydroxy-1-phenylbutan-2-yl)-N1-methylisophthalamide] | < 300 nM
7 | COc1ccc(C(F)(F)F)cc1CNC[C@@H](O)[C@H](Cc1ccccc1)NC(=O)c1cccc(C(=O)N(C)Cc2nc(C)cs2)c1 [Compound 282, N1-((2S,3R)-3-hydroxy-4-(2-methoxy-5-(trifluoromethyl)benzylamino)-1-phenylbutan-2-yl)-N3-methyl-N3-((4-methylthiazol-2-yl)methyl)isophthalamide] | > 501 nM
8 | CNc1cc(CNC[C@@H](O)[C@H](Cc2ccccc2)NC(=O)c2cccc(C(=O)N(C)Cc3nc(C)cs3)c2)cc(C(F)(F)F)c1 [Compound 283, N1-((2S,3R)-3-hydroxy-4-(3-(methylamino)-5-(trifluoromethyl)benzylamino)-1-phenylbutan-2-yl)-N3-methyl-N3-((4-methylthiazol-2-yl)methyl)isophthalamide] | < 300 nM
9 | COC(OC)C(C)c1cncc(CNC[C@@H](O)[C@H](Cc2ccccc2)NC(=O)c2cccc(C(=O)N(C)Cc3nc(C)cs3)c2)c1 (stereo partly drawn) [Compound 284, N1-((2S,3R)-4-((5-(1,1-dimethoxypropan-2-yl)pyridin-3-yl)methylamino)-3-hydroxy-1-phenylbutan-2-yl)-N3-methyl-N3-((4-methylthiazol-2-yl)methyl)isophthalamide] | < 300 nM
10 | CC(C)c1cncc(CNC[C@@H](O)[C@H](Cc2ccccc2)NC(=O)c2cccc(C(=O)N(C)Cc3nc(C(F)F)cs3)c2)c1 [Compound 285, N1-((4-(difluoromethyl)thiazol-2-yl)methyl)-N3-((2S,3R)-3-hydroxy-4-((5-isopropylpyridin-3-yl)methylamino)-1-phenylbutan-2-yl)-N1-methylisophthalamide] | < 300 nM
11 | CN(Cc1nc(C(F)F)cs1)C(=O)c1cccc(C(=O)N[C@@H](Cc2ccccc2)[C@H](O)CNCc2cncc(C(C)(C)F)c2)c1 [Compound 286, N1-((4-(difluoromethyl)thiazol-2-yl)methyl)-N3-((2S,3R)-4-((5-(2-fluoropropan-2-yl)pyridin-3-yl)methylamino)-3-hydroxy-1-phenylbutan-2-yl)-N1-methylisophthalamide] | < 300 nM
12 | Cc1csc(CN(C)C(=O)c2cccc(C(=O)N[C@@H](Cc3ccccc3)[C@H](O)CNCc3cnn(C)c3)c2)n1 [Compound 287, N1-((2S,3R)-3-hydroxy-4-((1-methyl-1H-pyrazol-4-yl)methylamino)-1-phenylbutan-2-yl)-N3-methyl-N3-((4-methylthiazol-2-yl)methyl)isophthalamide] | < 300 nM
13 | C=C(C)c1cncc(C(=O)NC[C@@H](O)[C@H](Cc2ccccc2)NC(=O)c2cccc(C(=O)N(C)Cc3nc(C)cs3)c2)c1 [Compound 288, N1-((2S,3R)-3-hydroxy-1-phenyl-4-(5-(prop-1-en-2-yl)nicotinamido)butan-2-yl)-N3-methyl-N3-((4-methylthiazol-2-yl)methyl)isophthalamide] | > 501 nM
14 | Cc1csc(CN(C)C(=O)c2cc(C(=O)N[C@@H](Cc3ccccc3)[C@H](O)CNCc3cccc(C(F)(F)F)c3)cc(-c3ncco3)c2)n1 [Compound 289, N1-((2S,3R)-3-hydroxy-1-phenyl-4-(3-(trifluoromethyl)benzylamino)butan-2-yl)-N3-methyl-N3-((4-methylthiazol-2-yl)methyl)-5-(oxazol-2-yl)isophthalamide] | < 300 nM
15 | COc1cccc([C@@H](C)NC[C@@H](O)[C@H](Cc2ccccc2)NC(=O)c2cc(C(=O)N(C)Cc3nc(C)cs3)cc(-c3ncco3)c2)c1 [Compound 290, N1-((2S,3R)-3-hydroxy-4-((R)-1-(3-methoxyphenyl)ethylamino)-1-phenylbutan-2-yl)-N3-methyl-N3-((4-methylthiazol-2-yl)methyl)-5-(oxazol-2-yl)isophthalamide] | < 300 nM
16 | Cc1csc(CN(C)C(=O)c2cccc(C(=O)N[C@@H](Cc3ccccc3)[C@H](O)CNCc3cccc(C(F)(F)F)c3O)c2)n1 [Compound 291, N1-((2S,3R)-3-hydroxy-4-(2-hydroxy-3-(trifluoromethyl)benzylamino)-1-phenylbutan-2-yl)-N3-methyl-N3-((4-methylthiazol-2-yl)methyl)isophthalamide] | > 501 nM
17 | COc1cccc([C@H](C)NC[C@@H](O)[C@H](Cc2ccccc2)NC(=O)c2cc(C(=O)N(C)Cc3nc(C)cs3)cc(-c3ncco3)c2)c1 [Compound 292, N1-((2S,3R)-3-hydroxy-4-((S)-1-(3-methoxyphenyl)ethylamino)-1-phenylbutan-2-yl)-N3-methyl-N3-((4-methylthiazol-2-yl)methyl)-5-(oxazol-2-yl)isophthalamide] | < 300 nM
18 | Cc1csc(CNC[C@@H](O)[C@H](Cc2ccccc2)NC(=O)c2cccc(C(=O)N(C)Cc3nc(C)cs3)c2)n1 [Compound 294, N1-((2S,3R)-3-hydroxy-4-((4-methylthiazol-2-yl)methylamino)-1-phenylbutan-2-yl)-N3-methyl-N3-((4-methylthiazol-2-yl)methyl)isophthalamide] | > 501 nM
19 | Cc1csc(CN(C)C(=O)c2cc(C(=O)N[C@@H](Cc3ccccc3)[C@H](O)CNCc3cncc(C(C)C)c3)cc(-c3cn[nH]c3)c2)n1 [Compound 295, N1-((2S,3R)-3-hydroxy-4-((5-isopropylpyridin-3-yl)methylamino)-1-phenylbutan-2-yl)-N3-methyl-N3-((4-methylthiazol-2-yl)methyl)-5-(1H-pyrazol-4-yl)isophthalamide] | < 300 nM
20 | COc1cccc(CNC[C@@H](O)[C@H](Cc2ccccc2)NC(=O)c2cccc(C(=O)N(C)Cc3nc(C)cs3)c2O)c1 [Compound 296, 2-hydroxy-N1-((2S,3R)-3-hydroxy-4-(3-methoxybenzylamino)-1-phenylbutan-2-yl)-N3-methyl-N3-((4-methylthiazol-2-yl)methyl)isophthalamide] | > 501 nM
21 | Cc1csc(CN(C)C(=O)c2cccc(C(=O)N[C@@H](Cc3ccccc3)[C@H](O)CNCc3cncc(C(C)C)c3)c2O)n1 [Compound 297, 2-hydroxy-N1-((2S,3R)-3-hydroxy-4-((5-isopropylpyridin-3-yl)methylamino)-1-phenylbutan-2-yl)-N3-methyl-N3-((4-methylthiazol-2-yl)methyl)isophthalamide] | > 501 nM
22 | Cc1csc(CN(C)C(=O)c2cc(C(=O)N[C@@H](Cc3ccccc3)[C@H](O)CNCc3cncc(C(C)C)c3)cc(-c3ccc(N(C)C)cc3)c2)n1 [Compound 298, 4′-(dimethylamino)-N3-((2S,3R)-3-hydroxy-4-((5-isopropylpyridin-3-yl)methylamino)-1-phenylbutan-2-yl)-N5-methyl-N5-((4-methylthiazol-2-yl)methyl)biphenyl-3,5-dicarboxamide] | < 300 nM
